Assay results reported in patent publication US5849536A, “Cloning and production of human von willebrand factor GPIb binding domain polypeptides and methods of using same” (Bio-Technology General Corp., priority 1994, dated 1998).

Test system: rat platelet rich plasma (PRP)
Experiment: vWF-dependent platelet aggregation assay in rat platelet rich plasma
Assay type: cell-based
Conditions: ristocetin up to 5.0 mg/ml, no additional agent
Procedure: This is a standardized von Willebrand Factor (vWF)-dependent aggregation assay using human or rat platelet rich plasma (PRP). The addition of various concentrations of unfractionated Bothrops jararaca venom (BJV), which includes botrocetin and an additional thrombin-like component, or ristocetin results in an aggregatory response in the absence of any additional agent. Using ristocetin (1.5 mg/ml) as the agonist 43 μg/ml VCL abolished the aggregation of human PRP.

ristocetin
aggregation of rat PRP induced by the agonist: did not cause measurable aggregation
